Laboratory results published in ChEMBL document CHEMBL5380777, “Efficacy, Mechanism, and Structure-Activity Relationship of 6-Methoxy Benzofuran Derivatives as a Useful Tool for Senile Osteoporosis” (J Med Chem, 2023).
Activity calls are given as the source filed them. The rule behind the calls is not given here.

What was measured:
[1] = species: Danio rerio; assay: Anti osteoporosis activity in prednisone induced wildtype 3 days post-fertilization AB zebrafish osteoporosis model assessed as increase in bone fluorescence intensity (RVB = 13620 +/- 1692); type: functional
[2] = test system: MC3T3-E1; assay: Induction of ALP activity in mouse MC3T3-E1 cells in osteogenic differentiation culture at 1 uM measured on day 7; type: functional, cell-based; details: time 7.0 day
[3] = test system: MC3T3-E1; assay: Cytotoxicity against mouse MC3T3-E1 cells; type: toxicity, cell-based

Q: How did the Flu intensity [1] turn out when `COc1ccc2cc(C(=O)N[C@H](CC(C)C)C(=O)O)oc2c1` was run?
A: Its Flu intensity is 20236.

Q: How did the Flu intensity [1] turn out when `COc1ccc2cc(C(=O)N3CCC(O)CC3)oc2c1` was run?
A: The Flu intensity was 20648.

Q: With `COc1ccc2cc(C(=O)N3CCN(C)CC3)oc2c1` as the compound, how does the Flu intensity [1] read?
A: Its Flu intensity is 23902.

Q: Which Flu intensity [1] does the source give for `COc1ccc2cc(C(=O)N[C@@H](C(=O)O)C(C)C)oc2c1` here?
A: The Flu intensity was 30880.

Q: And the Activity [2]?
A: Its Activity is “Active”.

Q: `COc1ccc2cc(C(=O)N3CCC(c4ccncc4)CC3)oc2c1` was tested. Which Flu intensity [1] did it give?
A: The Flu intensity was 30379.

Q: What about the Activity [3] of the same compound?
A: The Activity was “Toxic”.

Q: Which Flu intensity [1] does the source give for `COc1ccc2cc(C(=O)NCC(=O)NCCN3CCCCC3)oc2c1` here?
A: The Flu intensity was 31141.

Q: What about the Activity [2] of the same compound?
A: The Activity was “Active”.

Q: How did the Flu intensity [1] turn out when `COc1ccc2cc(C(=O)NC3CCC(O)CC3)oc2c1` (stereo not drawn) was run?
A: Its Flu intensity is 25882.

Q: With `COc1ccc2cc(C(=O)OCCN3CCCCC3)oc2c1` as the compound, how does the Flu intensity [1] read?
A: Its Flu intensity is 23536.

Q: How did the Flu intensity [1] turn out when `COc1ccc2cc(C(=O)NCCN3CCN(C)CC3)oc2c1` was run?
A: The Flu intensity was 25904.

Q: With `COc1ccc2cc(C(=O)N3CCC(C(F)(F)F)CC3)oc2c1` as the compound, how does the Flu intensity [1] read?
A: The Flu intensity was 16975.

Q: For `COc1ccc2cc(C(=O)NCC(=O)NCCN(C)C)oc2c1`, which Flu intensity [1] is on record?
A: The Flu intensity was 23919.

Q: Which Flu intensity [1] does the source give for `COc1ccc2cc(C(=O)NCCN3CCNCC3)oc2c1` here?
A: Its Flu intensity is 21709.

Q: `COc1ccc2cc(C(=O)NCCN3CCCCC3)oc2c1` was tested. Which Flu intensity [1] did it give?
A: Its Flu intensity is 23225.

Q: How did the Flu intensity [1] turn out when `COc1ccc2cc(C(=O)NCC(=O)O)oc2c1` was run?
A: Its Flu intensity is 22567.

Q: Which Flu intensity [1] does the source give for `COc1ccc2cc(C(=O)NCCN3CCOCC3)oc2c1` here?
A: The Flu intensity was 26682.
